These results are taken from a melting point compilation (Tetko et al.; mined from patent text by program, amines drawn as free bases though some values may be those of a salt).

Broadly, the melting point is the temperature, or range, at which the solid turns liquid. Regarding `N#Cc1cn(-c2ccc(C(F)(F)F)cc2)c(=O)[nH]c1=O`, the melting point lay within 230 to 232 °C.

The compound `Cn1c(=O)n(CC(=O)OCCF)c(=O)n(-c2cc(Oc3ncc(C(F)(F)F)cc3Cl)ccc2Br)c1=O` gave a melting point of 93 to 95 °C.

On to `COCCN(C1CC(C)(C)Oc2ccc(OCc3ccccc3)cc21)S(C)(=O)=O` (stereo not drawn), for which the melting point is 66 to 68 °C.

As for `O=C(Nc1ccccc1)Nc1ccc(-c2ccc(C(=O)N3CCN4CCC3CC4)o2)cc1`, the melting point lay in the range of 125 to 130 °C.

In turn, `COc1ccc(Oc2ccccc2NS(C)(=O)=O)cc1` gave a melting point of 81 to 83 °C.

In turn, `O=c1[nH]c(=S)[nH]c2c1cnn2CC(O)c1ccccc1` (stereo not drawn) gave a melting point of 264 to 265 °C.

As to `CC(C)(C)OC(=O)N1CC(CC(=O)O)c2ccccc21` (single isomer, unassigned; (+)), the melting point was in the range of 137 to 138 °C.

In turn, `COc1ccc(C(=O)Nc2ccccc2)cc1NCc1ccc2c(c1)OCO2` returned a melting point of 185 to 187 °C.

As for `COc1c(Cl)ccc(-c2nc(N)c(Cl)c(C(=O)O)n2)c1F`, the melting point lay in the range of 172 to 173 °C.

`O=C(O)c1ccc2c(c1)S(=O)(=O)c1ccccc1C2` showed a melting point of 229 to 248 °C.

`CC1(C2CCCC2)Cc2cc(OCCCCCC(=O)O)c(Cl)c(Cl)c2C1=O` (stereo not drawn) returned a melting point of 127 to 129 °C.

For the compound `COC(=O)CCCc1cc2cc(Cl)ccc2n1S(=O)(=O)c1ccc2nc(N)oc2c1`, the melting point came out at 238 °C.

Turning to `CCCCn1cc(S(C)=O)c(=O)c2ccccc21` (stereo not drawn), the melting point was 103 to 105 °C.

Compound `CS(=O)(=O)c1ccc(-c2cc(=O)n(CC3CCCCC3)nc2-c2ccc(F)cc2)cc1` showed a melting point of 175 to 176 °C.

For the compound `CCOC(=O)NC(=NCCCc1c[nH]cn1)NCCSCc1ccccn1`, the melting point was 60 to 61 °C.

Compound `CC1CCC(C)N1CCNc1ccnc2cc(Cl)ccc12` (stereo not drawn) registered a melting point of 127 to 130 °C.

In turn, `C/C=C/c1cc(OC)c2oc(-c3ccc(O)c(OC)c3)c(CO)c2c1` registered a melting point of 175 to 179 °C.

For `COc1ccc(COC(=O)c2ccccc2)cc1OCc1ccccc1`, the melting point is 75.7 °C.

The compound `O=c1c2c(Br)cc(Br)cc2n(Cc2ccccc2)c(=O)n1Cc1ccccc1Cl` gave a melting point of 202 to 205 °C.

As to `O=C(CCn1ccnc1)c1ccc(Cl)cc1Cl`, the melting point is 105 to 109 °C.

Consider `CCOC(=O)Oc1ccc(OC)c(N)c1`, for which the melting point lay within 150 to 151 °C.

For `O=C(NC1N=C(c2ccccc2F)c2ccccc2NC1=O)OCc1ccccc1` (racemic), the melting point was determined as 208 °C.

As to `O=C1Nc2cccnc2N(C(=O)NCCN2CCC(CCCN3CCCCC3)CC2)c2cc(Cl)ccc21`, the melting point lay within 176 to 177 °C.

The compound `OC(CCc1ccc(Br)cc1)Cn1ccnc1` (stereo not drawn) returned a melting point of 121 to 122 °C.

Compound `COC(=O)CCc1ccccc1-c1[nH]c2cccc3c2c1CCNC3=O` registered a melting point of 201 to 202 °C.

For `Brc1ccc2c(c1)COCc1cc(Br)ccc1-2`, the melting point lay within 129 to 131 °C.

The compound `Cn1c(C(F)(F)F)ccc(-c2cc3c(cc2F)OCC(=O)N3)c1=O` displayed a melting point of 216 to 218 °C.

The compound `C=CCOc1cc2c(cc1CC=C)CCC(=O)N2` returned a melting point of 137 to 139 °C.

`CC(C)Cn1cnc2c(N)nc3ccc(-c4cccnc4)cc3c21` yielded a melting point of 244 to 246 °C.

`O=C(O)c1cccc(NCc2cccc(Cl)c2)c1C(=O)O` had a melting point of 207 to 209 °C.

Consider `O=C(Nc1cc(F)c(Cl)nc1C1CCN(CC=Cc2ccc(Cl)cc2)CC1)c1ccnc(Cl)c1`, for which the melting point fell in the range of 71 to 73 °C.

Compound `O=C1C=CC(=O)N1c1ccc(Oc2ccc3ccc(Oc4ccc(N5C(=O)C=CC5=O)cc4)cc3c2)cc1` had a melting point of 162 to 164 °C.

On to `COC(=O)c1ccc(-c2n[nH]c3c2Cc2ccccc2-3)cc1`, for which the melting point fell in the range of 224 to 226 °C.

`CN(c1cccc(-c2ccnc3c(C#N)cnn23)c1)S(C)(=O)=O` gave a melting point of 193 to 195 °C.

`Cc1ccc2c(c1)O[C@@H](CN1CCC(CNC(=O)c3cccnc3N)CC1)CO2` returned a melting point of 143 to 146 °C.

`CN(C)C(=O)Cc1c(-c2ccccc2)nn2cccnc12` showed a melting point of 156 to 158 °C.

In turn, `O=C1COC[C@@H](c2cccc(F)c2)N1` yielded a melting point of 119 to 121 °C.

In the case of `COC(=O)CCCCNC(=O)C[C@H]1O[C@H](c2cccc(OC)c2OC)c2cc(Cl)ccc2N(CC(C)(C)CO)C1=O`, the melting point is 84 to 85 °C.

Compound `O=C(NCCc1ccccc1CO)c1ccc([N+](=O)[O-])cc1` showed a melting point of 137 to 138 °C.

As to `CCCCOc1cc(C(=O)NCCCN2CCCCC2)cc(S(N)(=O)=O)c1Cc1ccccc1`, the melting point amounted to 138 °C.

In turn, `COC(=O)c1cccc2c1OC1CC(N=[N+]=[N-])C(O)C21` (stereo not drawn) came in with a melting point of 150 to 152 °C.

The compound `COC(=O)COc1ncccc1[N+](=O)[O-]` displayed a melting point of 61.5 °C.

The compound `CCOC(=O)c1c(C)[nH]c2ccc(C(=O)c3c(C)c(OC)c4ccccn34)cc2c1=O` came in with a melting point of 257 °C.

For `Clc1ccc2c(c1)Nc1cc(Cl)ccc1OCO2`, the melting point was 194 to 196 °C.

`C=C(C)CCOc1c(-c2ccc(S(C)(=O)=O)cc2)cnn(-c2cccc(Cl)c2)c1=O` displayed a melting point of 110 to 112 °C.

Consider `CCOC(=O)C1CCc2ccc3[nH]c(C(F)(F)F)nc3c2O1` (stereo not drawn), for which the melting point came to 134 °C.

In the case of `CCCCCCCCCCCCNC(=O)n1nc(Oc2ncc(C(F)(F)F)cc2Cl)cc1C`, the melting point is 56 to 57 °C.

As to `CC(=O)c1c(S(=O)(=O)C(F)(F)F)c(C#N)nn1-c1c(Cl)cc(C(F)(F)F)cc1Cl`, the melting point was determined as 161 °C.

`Brc1ccc(-n2c(-c3ccccc3)ccc2-c2ccccc2)cc1` displayed a melting point of 218 to 219 °C.

For `COc1cccc([C@H]2O[C@H](CC(=O)Nc3ncc(CCC(=O)O)s3)C(=O)N(CC(C)(C)CO)c3ccc(Cl)cc32)c1OC`, the melting point is 203 to 205 °C.

The compound `Nc1ccc(CP2(=O)OCCO2)cc1` gave a melting point of 183 to 184 °C.

Turning to `Nc1nc(N)c2cc(Sc3ccc(Cl)c(Cl)c3)ccc2n1`, the melting point was in the range of 232 to 234 °C.

Compound `CC(C)CC(NC(=O)Cc1ccc(NC(=O)Nc2ccccc2Cl)cc1)c1ncc(CCC(=O)O)s1` (stereo not drawn) showed a melting point of 173 to 175 °C.

As for `COc1ccc(C(C#N)C(C)C)cc1OC` (stereo not drawn), the melting point lay within 45.5 to 49 °C.

For `N=c1n(Cc2ccc(Cl)cc2)c2ccc(Cl)cc2n1Cc1ccc(Cl)cc1`, the melting point was in the range of 175 to 177 °C.

With `CSc1nc(C)cc(OC(F)F)n1`, the melting point was in the range of 40 to 42 °C.

On to `CN(CC[C@H]1CC[C@H](C(=O)O)CC1)C(=O)OC(C)(C)C`, for which the melting point is 212 to 214 °C.

Compound `CCCCn1cc(N)c(=O)c2cnc(-c3ccncc3)nc21` displayed a melting point of 195 to 196 °C.

The compound `CCOC(=O)C=Cc1ccc(NC(C)=O)cc1` came in with a melting point of 126 to 127 °C.

As for `CCc1[nH]n(C2CCCC2)c2nc(-c3cccc(-n4ccnc4)c3)nc(=O)c1-2`, the melting point was in the range of 264 to 265 °C.

For the compound `CCCCCCCOc1ccc(CCC(CO)(CCO)NC(=O)c2cc([N+](=O)[O-])cc([N+](=O)[O-])c2)cc1` (single isomer, unassigned; (+)), the melting point is 78 to 79 °C.

With `N#Cc1ccc(OC2SCC(O)C(O)C2O)cn1` (stereo not drawn), the melting point lay within 179 to 180 °C.

Regarding `O=C(O)c1cc([N+](=O)[O-])ccc1C(=O)c1ccccc1`, the melting point fell in the range of 176 to 179 °C.
